Experiments:
PfSR10 [1] = target: T1, PfSR10 (Plasmodium falciparum, UniProt Q8I5P8); test: FlAsH-BRET assay of PfSR10 extracellular conformational changes; assay type: cell-based; conditions: for ECL3 movement relative to the PfSR10 N-terminus, S6 sensor: S6 (site 6) sensor site; for ECL1 movement relative to the PfSR10 N-terminus: concentration-dependent
Protocol: To characterize the binding properties of different ligands (CQ, DHA, PIP-TT, PQ, bradykinin or des-Arg9-bradykinin) to PfSR10, a FlAsH BRET assay was performed as previously described.[29]^,[32]^,[49] We seeded HEK293 cells or COS-7 cells in 6-well plate were transfected with PfSR10 FlAsH BRET sensors (S1 to S6 as indicated in Figure 4B) and incubated for 48 h at 37°C in 5% CO2. The overexpressed PfSR10 sensors cells were washed with FlAsH BRET buffer (25 mM HEPES, 1 mM CaCl2, 140 mM NaCl, 2.7 mM KCl, 0.9 mM MgCl2, 0.37 mM NaH2PO4, 5.5 mM D-glucose, 12 mM NaHCO3) and incubated with 2.5 μM FlLAsH EDT2 (pre-diluted in FLAsH BRET buffer) for 40min at 37°C in 5% CO2. The cells were washed twice, resuspended with FlAsH BRET buffer, and seeded into a 96-well plate at a density of 5x10^4 per well. After adding increasing concentrations of ligand (CQ, DHA, PIP-TT, PQ, bradykinin or des-Arg9-bradykinin) together with luciferase substrate coelenterazine-h (5 μM), the BRET signals between Nluc (440-480 nm) and FlAsH fluorescent moiety (525-585 nm) emissions were examined by a Mithras LB 940 Multimode Microplate Reader.

PfSR10 [2] = target: T1, PfSR10; test: Gi1-Gγ dissociation BRET assay in PfSR10-overexpressing HEK293 cells; assay type: cell-based; conditions: for Gi1 coupling with PfSR10 (in words): G protein dissociation assay
Source text: (§1) To characterize the G protein signalling properties of PfSR10, G protein BRET probes were generated according to previous publication.[50] The Gqo BRET probes were generated by replacing the six amino acids of the C- terminus of Gq -RlucII with those from GoA1, creating a chimeric Gqo-RlucII subunit.[51] HEK293 cells or COS-7 cells were co-transfected with PfSR10 and various G protein probes (Gi, Gq and Gqo). Forty-eight hours post-transfection, cells were washed twice with HBSS, resuspended with HBSS buffer, and seeded into a 96-well plate at a density of 5x10^4 per well. After adding increasing concentrations of ligand (CQ, DHA, PIP-TT, PQ, Bradykinin, des-Arg9-bradykinin, bradykinin-Arg-FITC, FITC-bradykinin) together with luciferase substrate coelenterazine 400a (5 μM, Cayman), the BRET signals between […] (440-480 nm) and GFP2 (510 nm) emissions were examined by a Mithras LB 940 Multimode Microplate Reader (Berthold Technologies). The BRET signal was calculated as the ratio of the GFP2 emission to Nluc emission.

PfSR10 [3] = target: T1, PfSR10; test: GloSensor-cAMP assay, inhibition of forskolin-induced cAMP in PfSR10-overexpressing HEK293 cells; assay type: cell-based
Protocol: (§2) To examine the constitutive activity of PfSR10, we transfected HEK293 cells with different concentrations of the receptor, including PfSR10, ADGRG2, ADGRG3. For measuring the anti-malarial drugs, bradykinin or des-Arg9-bradykinin-induced inhibition of forskolin-stimulated cAMP level in HEK293 cells or COS-7 cells, the receptor encoding plasmid (PfSR10 or its mutants) or empty plasmid (pcDNA3.1) was co-transfected with the GloSensor plasmid and incubated in an incubator at 37°C with 5% CO2 for 24 h. The transfected cells were then inoculated on 96-well plates (at a density of 4 × 10^4 / well) and incubated in incubators under the same conditions for another 24 hours. Cells were precultured with serum-free medium (Gibco) containing 5% DILUTED GloSensor™cAMP reagent Reserve solution (Progema) for 2 h. The base cAMP signal was directly measured using a multimode tablet reader (PerkinElmer Envision). At the same time, the cAMP signal induced by DHA, PIP-TT, PQ, CQ bradykinin or des-Arg9-bradykinin was detected after adding agonists into the corresponding Wells. Finally, the s-shaped dose response function in GraphPad Prism 7.0 was used to analyze the data.

PfSR10 mutants = test: GloSensor-cAMP assay with site-directed PfSR10 mutants; assay type: cell-based, Plasmodium falciparum
Protocol: as §2

SR10 [4] = test: GloSensor-cAMP assay in HEK293 cells overexpressing P. knowlesi SR10; assay type: cell-based; conditions: one of the two other Plasmodium species
PbSR10 [5] = target: T2, PbSR10 (Plasmodium berghei, UniProt A0A509AUP3); test: GloSensor-cAMP assay in HEK293 cells overexpressing PbSR10; assay type: cell-based
T2 sequence (A0A509AUP3 entry or part of it): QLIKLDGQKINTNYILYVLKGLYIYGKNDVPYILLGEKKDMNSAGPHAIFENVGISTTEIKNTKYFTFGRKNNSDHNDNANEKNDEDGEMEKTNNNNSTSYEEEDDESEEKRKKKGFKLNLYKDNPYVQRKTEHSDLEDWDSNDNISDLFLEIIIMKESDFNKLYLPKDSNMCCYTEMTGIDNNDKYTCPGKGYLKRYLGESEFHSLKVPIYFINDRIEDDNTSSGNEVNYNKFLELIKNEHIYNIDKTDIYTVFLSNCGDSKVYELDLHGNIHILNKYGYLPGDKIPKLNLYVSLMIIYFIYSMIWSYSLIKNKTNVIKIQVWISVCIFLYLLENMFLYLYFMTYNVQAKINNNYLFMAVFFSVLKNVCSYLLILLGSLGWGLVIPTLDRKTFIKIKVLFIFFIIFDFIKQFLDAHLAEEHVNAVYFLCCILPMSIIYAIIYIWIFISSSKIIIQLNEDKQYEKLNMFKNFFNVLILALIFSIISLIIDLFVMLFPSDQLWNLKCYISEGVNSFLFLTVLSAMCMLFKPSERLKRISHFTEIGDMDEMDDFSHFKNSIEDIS

PbSR10 [6] = target: T2, PbSR10; test: Gi protein trimer dissociation assay in HEK293 cells overexpressing PbSR10; assay type: cell-based
Plasmodium falciparum [7] = test: IP3 ELISA in isolated parasites at trophozoite stage; assay type: cell-based; conditions: 10 μM DHA, 1 h, compared with untreated group
Protocol: To measure the IP3 levels in the Plasmodium falciparum. P. falciparum parasites were collected as described above. In brief, after 1 h-treatment 1h with 10 μM of DHA, P. falciparum parasites were isolated at the trophozoite stage and washed twice with PBS. Then P. falciparum parasites were disrupted repeatedly by freeze-thaw, sedimented by centrifugation at 600 g for 10 min at 4°C. The supernatant was collected and IP3 levels were determined using IP3 ELISA Kit (Hengyuan Biotechnology, Shanghai) according to manufacturer’s instructions.

SR10 [8] = test: GloSensor-cAMP assay in HEK293 cells overexpressing P. vivax SR10; assay type: cell-based; conditions: one of the two other Plasmodium species
PySR10 = PySR10 (Plasmodium yoelii, UniProt V7PQD6); test: GloSensor-cAMP assay in HEK293 cells overexpressing PySR10; assay type: cell-based
Sequence of PySR10 (V7PQD6 entry or part of it): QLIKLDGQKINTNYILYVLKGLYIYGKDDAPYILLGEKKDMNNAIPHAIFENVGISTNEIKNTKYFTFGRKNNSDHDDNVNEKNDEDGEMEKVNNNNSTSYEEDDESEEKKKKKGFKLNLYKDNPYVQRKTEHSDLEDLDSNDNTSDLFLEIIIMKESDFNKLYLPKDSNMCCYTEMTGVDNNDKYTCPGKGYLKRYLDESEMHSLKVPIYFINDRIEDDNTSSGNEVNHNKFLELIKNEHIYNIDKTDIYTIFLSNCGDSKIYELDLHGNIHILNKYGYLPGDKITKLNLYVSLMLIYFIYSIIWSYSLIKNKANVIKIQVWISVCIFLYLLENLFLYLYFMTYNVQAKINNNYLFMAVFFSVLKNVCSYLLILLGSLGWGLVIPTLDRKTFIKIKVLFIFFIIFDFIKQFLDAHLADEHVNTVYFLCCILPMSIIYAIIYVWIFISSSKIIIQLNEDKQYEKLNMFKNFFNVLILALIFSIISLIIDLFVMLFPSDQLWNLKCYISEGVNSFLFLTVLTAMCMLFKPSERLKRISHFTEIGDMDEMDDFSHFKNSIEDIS

Plasmodium falciparum [9] = test: cAMP ELISA in isolated parasites at trophozoite stage stimulated with Fsk; assay type: cell-based; conditions: 10 μM DHA, 3 μM Fsk, compared with untreated group
Protocol: For determination of the cAMP levels in the Plasmodium falciparum, P. falciparum-infected human erythrocyte s at trophozoite stage, synchronized with sorbitol as previously described.[47] The P. falciparum-infected cells were subject to the 10 μM DHA treatment or not for 1 h after synchronization in the presence of 3 μM of Fsk. P. falciparum parasites were isolated at the trophozoite stage.[48] P. falciparum parasites were washed twice with PBS and resuspended at a concentration of 5×10^6 cells/ml^-1 in the same buffer and incubated for 15 min with 10 μM DHA in the presence 300 nM IBMX to prevent cAMP degradation. After treatment, P. falciparum parasites were disrupted repeatedly by freeze-thaw, sedimented by centrifugation at 600 g for 10 min at 4°C and the supernatant was collected and subjected to cAMP measurement using cAMP ELISA Kit (R&D systems) according to manufacturer’s instructions.

PfSR10 [10] = target: T1, PfSR10; test: Gq-Gγ dissociation BRET assay in PfSR10-overexpressing HEK293 cells; assay type: cell-based
Source text: as §1

PcSR10 = PcSR10 (Plasmodium chabaudi, UniProt A0A4V0KCI5); test: GloSensor-cAMP assay in HEK293 cells overexpressing PcSR10; assay type: cell-based
Sequence of PcSR10 (A0A4V0KCI5 entry or part of it): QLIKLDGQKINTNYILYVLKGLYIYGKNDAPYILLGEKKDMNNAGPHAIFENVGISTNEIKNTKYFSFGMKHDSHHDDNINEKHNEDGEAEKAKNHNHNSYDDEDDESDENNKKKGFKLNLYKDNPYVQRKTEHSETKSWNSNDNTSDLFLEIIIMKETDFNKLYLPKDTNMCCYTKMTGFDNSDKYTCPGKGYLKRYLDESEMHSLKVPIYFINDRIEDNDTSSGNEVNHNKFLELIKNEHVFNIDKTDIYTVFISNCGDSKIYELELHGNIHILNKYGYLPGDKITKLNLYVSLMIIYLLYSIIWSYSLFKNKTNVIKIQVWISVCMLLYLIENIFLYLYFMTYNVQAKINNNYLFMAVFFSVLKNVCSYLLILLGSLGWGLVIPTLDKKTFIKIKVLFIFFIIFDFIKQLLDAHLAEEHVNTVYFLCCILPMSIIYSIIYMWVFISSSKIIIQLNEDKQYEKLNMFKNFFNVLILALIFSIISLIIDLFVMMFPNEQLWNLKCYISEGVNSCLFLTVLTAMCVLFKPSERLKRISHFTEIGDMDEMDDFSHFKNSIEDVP

[11] = HEK293 cells overexpressing PfSR10, mean ± SEM

T1 sequence (Q8I5P8 entry or part of it): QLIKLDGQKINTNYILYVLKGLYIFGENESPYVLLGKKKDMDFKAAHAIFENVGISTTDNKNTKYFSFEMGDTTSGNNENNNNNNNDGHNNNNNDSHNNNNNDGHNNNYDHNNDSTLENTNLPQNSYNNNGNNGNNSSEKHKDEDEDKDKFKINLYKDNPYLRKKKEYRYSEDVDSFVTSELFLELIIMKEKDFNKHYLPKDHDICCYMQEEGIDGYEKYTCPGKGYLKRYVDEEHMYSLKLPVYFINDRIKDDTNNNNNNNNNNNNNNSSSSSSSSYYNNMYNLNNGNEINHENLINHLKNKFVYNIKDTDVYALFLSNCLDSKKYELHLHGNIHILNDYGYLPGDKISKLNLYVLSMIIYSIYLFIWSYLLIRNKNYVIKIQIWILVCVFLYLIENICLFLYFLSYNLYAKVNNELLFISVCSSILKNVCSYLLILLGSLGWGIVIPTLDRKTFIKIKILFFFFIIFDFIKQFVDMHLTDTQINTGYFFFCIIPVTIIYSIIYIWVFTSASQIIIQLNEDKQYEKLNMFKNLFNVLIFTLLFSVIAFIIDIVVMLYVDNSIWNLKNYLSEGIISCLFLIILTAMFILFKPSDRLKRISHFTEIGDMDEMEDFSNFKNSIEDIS

With `O=C1C(O)=C([C@H]2CC[C@H](c3ccc(Cl)cc3)CC2)C(=O)c2ccccc21` [ATO, atovaquone] the “extracellular conformational changes in PfSR10” value (PfSR10 [1]) was “did not induce detectable extracellular conformational changes”.
For `CCN(CC)CCCC(C)Nc1ccnc2cc(Cl)ccc12` (stereo not shown) [CQ, chloroquine], the “ECL3 movement relative to the PfSR10 N-terminus, S6 sensor” value (PfSR10 [1]) was “separation of ECL3 from the PfSR10 N-terminus”, the “ECL1 movement relative to the PfSR10 N-terminus” value (PfSR10 [1]) was “inward movement of ECL1 toward the PfSR10 N-terminus” and the EC50 (PfSR10 [2]) was 0.75 ± 0.06 nM. For the same compound, the “Gi1 coupling with PfSR10 (in words)” value (PfSR10 [2]) was “promoted Gi1 coupling with PfSR10”, the EC50 (PfSR10 [3]) was 36.6 ± 2.97 nM and the “cAMP inhibition Emax” value (PfSR10 [3]; [11]) was 0.958 ± 0.03 × 10^3.
For `C[C@H]1[C@@H](O)O[C@@H]2O[C@@]3(C)CC[C@H]4[C@H](C)CC[C@@H]1[C@@]24OO3` [DHA, dihydroartemisinin], the “effect of mutation on DHA potency, PfSR10 C454F” value (PfSR10 mutants; mutant C454F vs wild type) was “minimal effects”, the “effect of mutation on DHA-induced cAMP inhibition, PfSR10 L587M” value (PfSR10 mutants; mutant L587M vs wild type) was “significantly impaired” and the “effect of mutation on DHA-induced cAMP inhibition, PfSR10 N595S” value (PfSR10 mutants; mutant N595S vs wild type) was “significantly impaired”. For the same compound, the “effect of mutation on DHA-induced cAMP inhibition, PfSR10 T513A” value (PfSR10 mutants; mutant T513A vs wild type) was “significantly impaired”, the “effect of mutation on DHA potency, PfSR10 T528S” value (PfSR10 mutants; mutant T528S vs wild type) was “minimal effects” and the “cAMP response via SR10 of P. knowlesi” value (SR10 [4]) was “no response”. The EC50 (PbSR10 [5]) was 12.3 ± 4.75 nM, the “Gi dissociation downstream of PbSR10” value (PbSR10 [6]) was “promoted Gi dissociation” and the “ECL1 movement relative to the PfSR10 N-terminus” value (PfSR10 [1]) was “inward movement of ECL1 toward the PfSR10 N-terminus”. For the same compound, the “IP3 concentration in the malaria parasite” value (Plasmodium falciparum [7]) was “significantly increased”, the “cAMP response via SR10 of P. vivax” value (SR10 [8]) was “no response” and the EC50 (PySR10) was 36.6 ± 6.78 nM. The “Fsk-stimulated cAMP in the malaria parasite” value (Plasmodium falciparum [9]) was “inhibited”, the EC50 (PfSR10 [3]) was 3.94 ± 1.6 nM and the “cAMP inhibition Emax” value (PfSR10 [3]; [11]) was 1.136 ± 0.06 × 10^3. It also gave an EC50 (PfSR10 [10]) of 2 ± 0.1 nM and an EC50 (PcSR10) of 37.6 ± 15.5 nM.
For `Clc1ccc2c(N3CCN(CCCN4CCN(c5ccnc6cc(Cl)ccc56)CC4)CC3)ccnc2c1.O=P(O)(O)O` [PIP-TT, piperaquine-tetraphosphate-tetrahydrate], the “ECL3 movement relative to the PfSR10 N-terminus, S6 sensor” value (PfSR10 [1]) was “separation of ECL3 from the PfSR10 N-terminus”, the “ECL1 movement relative to the PfSR10 N-terminus” value (PfSR10 [1]) was “inward movement of ECL1 toward the PfSR10 N-terminus” and the “Gi1 coupling with PfSR10 (in words)” value (PfSR10 [2]) was “promoted Gi1 coupling with PfSR10”. For the same compound, the “Gi1-dissociation Emax” value (PfSR10 [2]; [11]) was -13.00 ± 1.00 × 10^-3, the EC50 (PfSR10 [2]; HEK293 cells overexpressing PfSR10, mean ± SEM, read-out: Gi1-dissociation EC50) was 9.18 ± 5.23 nM and the “cAMP inhibition Emax” value (PfSR10 [3]; [11]) was 1.070 ± 0.09 × 10^3. For the same compound, the EC50 (PfSR10 [3]; inhibition of Fsk-induced cAMP elevation, HEK293 cells overexpressing PfSR10, mean ± SEM, n=3, read-out: cAMP inhibition EC50) was 0.4 ± 0.12 nM.

— article PMC12639566, “Identification of antimalarial drugs and bradykinin as ligands of the Plasmodium membrane protein PfSR10” (iScience, 2025)
